Measured values: the supplement of paper PMC11451515

System: P12-Ichikawa
Assay: cell viability relative to DMSO control; higher = less cytotoxic
Conditions: 48 h
Procedure, shortened: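 In 1536-well plates, 5 μl of leukemia cells were seeded per well: 500 cells/well for NOMO1 or SEM and 1000 cells/well for P12-Ichikawa. Each line had first been adapted for at least four passages in each medium. Library compounds in DMSO were pin-dosed at 11 threefold concentrations between 47 μM and 0.79 nM, and CellTiter-Glo One luminescence was read after 48 h at 37°C. Viability is a per-plate percentage relative to DMSO wells, with cell-free wells as background.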

[1] = HPLM + 10% dialyzed FBS, 0.000781 µM
[2] = HPLM + 10% dialyzed FBS, 0.00234 µM
[3] = HPLM + 10% dialyzed FBS, 0.00702 µM
[4] = HPLM + 10% dialyzed FBS, 0.0211 µM
[5] = HPLM + 10% dialyzed FBS, 0.0632 µM
[6] = HPLM + 10% dialyzed FBS, 0.19 µM
[7] = HPLM + 10% dialyzed FBS, 0.569 µM
[8] = HPLM + 10% dialyzed FBS, 1.71 µM
[9] = HPLM + 10% dialyzed FBS, 5.12 µM
[10] = HPLM + 10% dialyzed FBS, 15.4 µM
[11] = HPLM + 10% dialyzed FBS, 46.1 µM
[12] = RPMI 5 mM glucose + 10% FBS, 0.000781 µM
[13] = RPMI 5 mM glucose + 10% FBS, 0.00234 µM
[14] = RPMI 5 mM glucose + 10% FBS, 0.00702 µM
[15] = RPMI 5 mM glucose + 10% FBS, 0.0211 µM
[16] = RPMI 5 mM glucose + 10% FBS, 0.0632 µM
[17] = RPMI 5 mM glucose + 10% FBS, 0.19 µM
[18] = RPMI 5 mM glucose + 10% FBS, 0.569 µM
[19] = RPMI 5 mM glucose + 10% FBS, 1.71 µM
[20] = RPMI 5 mM glucose + 10% FBS, 5.12 µM
[21] = RPMI 5 mM glucose + 10% FBS, 15.4 µM
[22] = RPMI 5 mM glucose + 10% FBS, 46.1 µM
[23] = RPMI 5 mM glucose + 10% dialyzed FBS, 0.000781 µM
[24] = RPMI 5 mM glucose + 10% dialyzed FBS, 0.00234 µM
[25] = RPMI 5 mM glucose + 10% dialyzed FBS, 0.00702 µM
[26] = RPMI 5 mM glucose + 10% dialyzed FBS, 0.0211 µM
[27] = RPMI 5 mM glucose + 10% dialyzed FBS, 0.0632 µM
[28] = RPMI 5 mM glucose + 10% dialyzed FBS, 0.19 µM
[29] = RPMI 5 mM glucose + 10% dialyzed FBS, 0.569 µM
[30] = RPMI 5 mM glucose + 10% dialyzed FBS, 1.71 µM
[31] = RPMI 5 mM glucose + 10% dialyzed FBS, 5.12 µM
[32] = RPMI 5 mM glucose + 10% dialyzed FBS, 15.4 µM
[33] = RPMI 5 mM glucose + 10% dialyzed FBS, 46.1 µM

Compound	cell viability [1] [%]	cell viability [2] [%]	cell viability [3] [%]	cell viability [4] [%]	cell viability [5] [%]	cell viability [6] [%]	cell viability [7] [%]	cell viability [8] [%]	cell viability [9] [%]	cell viability [10] [%]	cell viability [11] [%]	cell viability [12] [%]	cell viability [13] [%]	cell viability [14] [%]	cell viability [15] [%]	cell viability [16] [%]	cell viability [17] [%]	cell viability [18] [%]	cell viability [19] [%]	cell viability [20] [%]	cell viability [21] [%]	cell viability [22] [%]	cell viability [23] [%]	cell viability [24] [%]	cell viability [25] [%]	cell viability [26] [%]	cell viability [27] [%]	cell viability [28] [%]	cell viability [29] [%]	cell viability [30] [%]	cell viability [31] [%]	cell viability [32] [%]	cell viability [33] [%]
COc1cc(OC)c(C(=O)CCCN2CCCC2)c(OC)c1	116	120	128	119	120	116	112	113	118	117	116	119	123	132	130	125	124	122	109	112	111	111	–	–	–	–	–	–	–	–	–	–	–
COc1ccc2[nH]cc(CCNC(C)=O)c2c1	–	–	–	–	–	–	–	–	–	–	–	125	125	112	121	122	123	112	111	109	108	112	–	–	–	–	–	–	–	–	–	–	–
CC(C)(Sc1ccc(CCN(CCCCC2CCCCC2)C(=O)NC2CCCCC2)cc1)C(=O)O	114	115	116	115	110	109	111	105	107	101	83.4	111	112	106	110	109	111	115	102	107	89	86.2	113	110	114	122	116	113	104	111	104	102	73.5
Cc1c(C(=O)c2cccc3ccccc23)c2cccc3c2n1[C@H](CN1CCOCC1)CO3	98.5	93.4	93.5	97	89.5	90.2	91.4	91.9	80.8	82	26.2	83.1	76.7	81.9	78.4	87.8	77.5	80.1	84.5	76.3	74.7	12.9	86	92.5	85.4	82.6	94.2	86.9	90.2	84.6	81	78.6	28.5
CCC(C1CCC(C)C(O1)C(C)C(O)C(C)C(=O)C(CC)C2OC\3(O[C@]4(CC[C@@](C)(O4)C5CC[C@@](O)(CC)C(C)O5)C(O)\C=C3)C(C)CC2C)C([O-])=O (some centres not stated)	103	112	109	101	106	106	105	82.8	74.5	74.8	64.5	85	111	101	111	104	109	100	73.7	60.9	56.1	42.5	96.4	107	109	113	112	108	86.2	68.8	55.7	44.9	41.1
N#Cc1ccnc(N2C(=O)CC[C@H]2C(=O)N(c2cncc(F)c2)[C@H](C(=O)NC2CC(F)(F)C2)c2ccccc2Cl)c1	91.1	95.2	93.7	95.4	94.9	97	74.8	48.3	10.1	10.1	15.5	88	90.2	95.4	93.1	90.5	90.5	80.5	71.5	25.4	16.2	7.62	95.5	89.9	88.5	96.7	97.5	95.6	85	83.7	35.6	26.2	18.8
N=C(N)Nc1ccc(C(=O)Oc2ccc3cc(C(=N)N)ccc3c2)cc1	88.3	104	98.8	92.5	103	95.5	88.6	83.9	87.9	87.4	72.3	96.4	93	99.4	90.5	102	95.9	91.1	97	88.4	95.7	52	83.8	92.3	86.5	83.4	89.5	85	86.7	87.1	85.1	83.7	53
CCc1cc(-c2n[nH]c(C)c2-c2ccc3c(c2)OCCO3)c(O)cc1O	115	133	119	132	132	135	131	135	131	96.7	74.7	–	–	–	–	–	–	–	–	–	–	–	–	–	–	–	–	–	–	–	–	–	–
C[N+]1(C)[C@@H]2CC(OC(=O)C(O)(c3cccs3)c3cccs3)C[C@H]1[C@@H]1O[C@@H]12 (some centres not stated)	98.7	105	109	106	109	110	109	109	103	112	102	117	113	123	111	120	126	120	116	115	111	121	105	101	100	107	105	111	109	109	111	113	101
